Data reported in PubChem BioAssay AID1259411 (Chemical Carcinogenesis Research Information System (CCRIS), 2018).
Activity calls are given as the source filed them. The rule behind the calls is not given here.

Tested on: rodent carcinogenicity bioassays, tumor incidence
Assay: CCRIS carcinogenicity studies
Outline: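 Archive of carcinogenicity, mutagenicity, tumor promotion and tumor inhibition results drawn from journals, NCI reports and other sources, expert-reviewed; covers 1985-2011 and is no longer updated.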

Measured: carcinogen call

CN(C)CCN(C)N=O
active: Species: HAMSTER, Strain/Sex: SYRIAN/FEMALE, Route: INTRAGASTRIC, Dose: 0, 36 MG/ML CORN OIL/ETHYL ACETATE (2:1) SOLUTION ADMINISTERED AS 0.2 ML 1/WK FOR 61 WK (STUDY DURATION: 106 WK), Tumor Site: Type of Lesion: NASAL CAVITY: ADENOMA, ESOPHAGUS: CARCINOMA, PAPILLOMA active; positive | Species: HAMSTER, Strain/Sex: SYRIAN/MALE, Route: INTRAGASTRIC, Dose: 0, 36 MG/ML CORN OIL/ETHYL ACETATE (2:1) SOLUTION ADMINISTERED AS 0.2 ML 1/WK FOR 61 WK (STUDY DURATION: 106 WK), Tumor Site: Type of Lesion: NASAL CAVITY: ADENOMA, CARCINOMA, LIVER: HEPATOCELLULAR TUMOR active; positive | Species: RAT, Strain/Sex: F344/FEMALE, Route: GAVAGE, Dose: 0, 14, MG/WK FOR A TOTAL DOSE OF 2.2 MMOL (STUDY DURATION: 40 WK), Dose: 0, 14, MG/WK FOR A TOTAL DOSE OF 2.2 MMOL (STUDY DURATION: 40 WK), Tumor Site: Type of Lesion: ESOPHAGUS: TUMOR, NASAL MUCOSA: TUMOR active; positive | Species: RAT, Strain/Sex: F344/FEMALE, Route: INTRAGASTRIC, Dose: 0, 36 MG/ML CORN OIL/ETHYL ACETATE (2:1) SOLUTION ADMINISTERED AS 0.2 ML 2/WK FOR 20 WK (STUDY DURATION: 38 WK), Tumor Site: Type of Lesion: NASAL CAVITY: ADENOMA, ESOPHAGUS: CARCINOMA, PAPILLOMA active; positive | Species: RAT, Strain/Sex: F344/FEMALE, Route: INTRAVESICULAR, Dose: 0, 7 MG IN 0.2 ML ETHANOL: DEIONIZED WATER (1:3) 2/WK FOR 23 WK (TOTAL DOSE 2.5 NMOL) (STUDY DURATION: LIFESPAN), Tumor Site: Type of Lesion: ESOPHAGUS: TUMOR, NASAL MUCOSA: TUMOR active; positive | Species: RAT, Strain/Sex: F344/MALE, Route: GAVAGE, Dose: 0, 14 MG/WK FOR A TOTAL DOSE OF 2.2 MMOL (STUDY DURATION: 40 WK), Tumor Site: Type of Lesion: ESOPHAGUS: TUMOR, NASAL MUCOSA: TUMOR active; positive | Species: RAT, Strain/Sex: F344/MALE, Route: INTRAGASTRIC, Dose: 0, 36 MG/ML CORN OIL/ETHYL ACETATE (2:1) SOLUTION ADMINISTERED AS 0.2 ML 2/WK FOR 20 WK (STUDY DURATION: 38 WK), Tumor Site: Type of Lesion: NASAL CAVITY: ADENOMA, CARCINOMA, ESOPHAGUS: CARCINOMA, PAPILLOMA active; positive | Species: RAT, Strain/Sex: F344/MALE, Route: ORAL, Dose: 0, 144 MG/L DEIONIZED DRINKING WATER ADMINISTERED AS 80 ML/WK FOR 20 WK (STUDY DURATION: 38 WK), Tumor Site: Type of Lesion: NASAL CAVITY: ADENOMA, ESOPHAGUS: CARCINOMA, PAPILLOMA active; positive

C=CC(=O)OCC(CC)CCCC (stereo not drawn)
inactive: Species: MOUSE, Strain/Sex: NMRI/MALE, Route: DERMAL, Dose: 0, 21.5, 43, 85% (W/W) IN ACETONE 3/WK FOR 2 YR (STUDY DURATION: 2 YR), Dose: 0, 21.5, 43, 85% (W/W) IN ACETONE 3/WK FOR 2 YR (STUDY DURATION: 2 YR) inactive; negative

NNC(N)=O
active: Species: MOUSE, Strain/Sex: SWISS/FEMALE, Route: ORAL, Dose: 0.0625% IN DRINKING WATER FOR LIFE, Tumor Site: Type of Lesion: BLOOD VESSELS: ANGIOMA, ANGIOSARCOMA, LUNG active; positive
inactive: Species: RAT, Strain/Sex: STRAIN-CD/FEMALE, Route: ORAL, Dose: 500, 1000 PPM IN DIET FOR 78 WK (LOW DOSE) OR 32 WK (HIGH DOSE) inactive; negative

CC(C)([CH2][Sn]([CH2]C(C)(C)c1ccccc1)([CH2]C(C)(C)c1ccccc1)[O][Sn]([CH2]C(C)(C)c1ccccc1)([CH2]C(C)(C)c1ccccc1)[CH2]C(C)(C)c1ccccc1)c1ccccc1
inactive: Species: Mouse, Strain/Sex: Unspecified strain/Female (96/Control group; 48/Experimental group), Route: Oral, Dose: 0, 50, 100, 300, 600 ppm of 97% fenbutatin oxide in the diet for 18 mo, study duration 18 mo, Dose: 0, 50, 100, 300, 600 ppm of 97% fenbutatin oxide in the diet for 18 mo, study duration 18 mo inactive; negative | Species: Mouse, Strain/Sex: Unspecified strain/Male (96/Control group; 48/Experimental group), Route: Oral, Dose: 0, 50, 100, 300, 600 ppm of 97% fenbutatin oxide in the diet for 18 mo, study duration 18 mo, Dose: 0, 50, 100, 300, 600 ppm of 97% fenbutatin oxide in the diet for 18 mo, study duration 18 mo inactive; negative | Species: Rat, Strain/Sex: Carworth Farm E/Female (96/Control group; 48/Experimental group), Route: Oral, Dose: 0, 50, 100, 300, 600 ppm of 97% fenbutatin oxide in the diet for 2 yr, study duration 2 yr, Dose: 0, 50, 100, 300, 600 ppm of 97% fenbutatin oxide in the diet for 2 yr, study duration 2 yr inactive; negative | Species: Rat, Strain/Sex: Carworth Farm E/Male (96/Control group; 48/Experimental group), Route: Oral, Dose: 0, 50, 100, 300, 600 ppm of 97% fenbutatin oxide in the diet for 2 yr, study duration 2 yr, Dose: 0, 50, 100, 300, 600 ppm of 97% fenbutatin oxide in the diet for 2 yr, study duration 2 yr inactive; negative

CN(CC(=O)O)N=O
active: Species: MOUSE, Route: INTRAPERITONEAL, Tumor Site: Type of Lesion: LIVER active; positive | Species: MOUSE, Route: ORAL, Tumor Site: Type of Lesion: NASAL CAVITY active; positive | Species: RAT, Route: ORAL, Tumor Site: Type of Lesion: ESOPHAGUS active; positive
